According to EP0350948B1, “Porphyrin derivatives” (TOYOHAKKA KOGYO KABUSHIKI KAISHA, priority 1988, dated 1990):

Tests used:
[1] = system: nitrosoamine-induced pancreatic cancer; experiment: laser irradiation to the extirpated organ (excited fluorescent spectrum, N2-PLS measurement), tumor to tissue ratio; type: in vivo, Golden hamsters; conditions: i.v. 25 mg/kg bodyweight, organs extirpated at 24 hours after administration
Experimental: Golden hamsters (males, 5 per group, bodyweight approximately 150 g) were implanted subcutaneously tumor cells of the nitrosoamine-induced pancreatic cancer. After 14 to 21 days following implantation, animals were intravenously (i.v.) administered the test substance EG-Ga-DP-diGly (10 mg/ml) which had been diluted with phosphate buffer at 25 mg/kg bodyweight. At 24 hours after administration, the organs including the tumor were extirpated, irradiated with N2-pulsed laser (N2, 337 nm, 2 ns, 400 - 1000 nm), and measured of excited fluorescent spectrum. The wavelengths of 600 - 900 nm were studied using the peak wavelength of NADH at 470 nm as a reference. (N2-PLS measurement). […] (Tumor to tissue ratio).
Excited fluorescent spectra of the organs extirpated at 24 hours after administration were measured, and the peak wavelength at 600 - 900 nm was calculated by setting the peak wavelength at 470 nm as the reference 1. As fluorescence in Mn, Fe and Cu complexes is not sufficiently intense as to enable N2-PLS measurement, the extraction method was applied to these compounds. At 24 hours following administration, the organs were extracted with an organic solvent (such as chloroform-methanol) via acetone powder, and the obtained extract was measured of UV or HPLC to calculate the tumor to tissue ratio.

[2] = system: nitrosoamine-induced pancreatic cancer; experiment: in vivo hemorrhagic necrosis effect; set-up: species or system hamsters; key to Hemorrhagic necrosis effect: four scales of G4, G3, G2 and G1; four scales of G4, G3, G2 and G1; four scales of G4, G3, G2 and G1; four scales of G4, G3, G2 and G1; conditions: for Hemorrhagic necrosis effect: intensity of hemorrhagic necrosis at 24 hours following i.v. administration, and pathological study; for photograph of cancer masses (Fig. 3): 24 hours after administration
Experimental: Cancer bearing hamsters of Experiment 1 were i.v. administered the test substance C6-Ga-DP-diAsp (10) (10 mg/ml) which had been diluted with phosphate buffer at 25 mg/kg bodyweight and 12.5 mg/kg bodyweight respectively. The animals were exsanguinated and autopsied at 24 hours after administration, and observed.
The evaluation was based on the four scales of G4, G3, G2 and G1.

| SMILES | Hemorrhagic necrosis effect [2] | also measured |
| --- | --- | --- |
| CC1=C(CCC(=O)NC(CC(=O)O)C(=O)O)C2=NC1=Cc1c(C)c(C(C)OCCc3ccccc3)c3[n]1[Ga][n]1c(c(C)c(CCC(=O)NC(CC(=O)O)C(=O)O)c1=C2)=CC1=NC(=C3)C(C)=C1C(C)OCCc1ccccc1 (stereo not shown) [(14) C8(Phenethyl)-Ga-DP-diAsp, 2,4-bis(1-phenethyloxyethyl)-Ga-deuteroporphynyl diaspartic acid] | G1 | tumor/tissue cancer/ kidney [1]: 3.79; tumor/tissue cancer/ liver [1]: 3.79; tumor/tissue cancer/ lung [1]: 2.89; tumor/tissue cancer/ serum [1]: 0.72 |
| CC1=C(CCC(=O)NC(CC(=O)O)C(=O)O)c2cc3[nH]c(cc4nc(cc5[nH]c(cc1n2)c(C(C)OCCC(C)CCCC(C)C)c5C)C(C(C)OCCC(C)CCCC(C)C)=C4C)c(C)c3CCC(=O)NC(CC(=O)O)C(=O)O.[Mn] (stereo not shown) [(44) C10(H2Citro)-Mn-DP-diAsp, 2,4-bis(1-dihydrocitronellyloxyethyl)-Mn-deuteroporphynyl diaspartic acid] | G4 |  |
| CC(C)=CCC/C(C)=C/COC(C)C1=C(C)C2=Cc3c(C(C)OC/C=C(\C)CCC=C(C)C)c(C)c4[n]3[Mn][n]3c(c(C)c(CCC(=O)NC(CC(=O)O)C(=O)O)c3=CC3=NC(=C4)C(C)=C3CCC(=O)NC(CC(=O)O)C(=O)O)=CC1=N2 (stereo not shown) [(42) C10(Gera)-Mn-DP-diAsp, 2,4-bis(1-geranyloxyethyl)-Mn-deuteroporphynyl diaspartic acid] | G3 | photograph of cancer masses (Fig. 3) [2]: hemorrhagic necrosis |
| CCCCCCCCOC(C)C1=C(C)C2=Cc3c(C(C)OCCCCCCCC)c(C)c4[n]3[Fe][n]3c(c(C)c(CCC(=O)NC(CC(=O)O)C(=O)O)c3=CC3=NC(=C4)C(C)=C3CCC(=O)NC(CC(=O)O)C(=O)O)=CC1=N2 (stereo not shown) [(62) C8-Fe-DP-diAsp, 2,4-bis(1-octyloxyethyl)-Fe-deuteroporphynyl diaspartic acid] | G3 | photograph of cancer masses (Fig. 3) [2]: hemorrhagic necrosis |
| CCCCCCCCCCCCOC(C)C1=C(C)c2cc3[nH]c(cc4nc(cc5[nH]c(cc1n2)c(C)c5C(C)OCCCCCCCCCCCC)C(C)=C4CCC(=O)NC(CC(=O)O)C(=O)O)c(CCC(=O)NC(CC(=O)O)C(=O)O)c3C.[Co] (stereo not shown) [(67) C12-Co-DP-diAsp, 2,4-bis(1-dodecyloxyethyl)-Co-deuteroporphynyl diaspartic acid] | G1 |  |
| CCCCCCCCCCOC(C)C1=C(C)C2=Cc3c(C(C)OCCCCCCCCCC)c(C)c4[n]3[Mn][n]3c(c(C)c(CCC(=O)NCC(=O)NC(CC(=O)O)C(=O)O)c3=CC3=NC(=C4)C(C)=C3CCC(=O)NCC(=O)NC(CC(=O)O)C(=O)O)=CC1=N2 (stereo not shown) [(39) C10-Mn-DP-diGly-diAsp, 2,4-bis(1-decyloxyethyl)-Mn-deuteroporphynyl diglycyldiaspartic acid] | G2 |  |
| CCCCCCCCCCCCCCOC(C)C1=C(C)C2=Cc3c(C(C)OCCCCCCCCCCCCCC)c(C)c4[n]3[Mn][n]3c(c(C)c(CCC(=O)NC(CC(=O)O)C(=O)O)c3=CC3=NC(=C4)C(C)=C3CCC(=O)NC(CC(=O)O)C(=O)O)=CC1=N2 (stereo not shown) [(51) C14-Mn-DP-diAsp, 2,4-bis(1-tetradecyloxyethyl)-Mn-deuteroporphynyl diaspartic acid] | G3 |  |
| CCCCCCCCCCOC(C)C1=C(C)C2=Cc3c(C(C)OCCCCCCCCCC)c(C)c4[n]3[Co][n]3c(c(C)c(CCC(=O)NC(CC(=O)O)C(=O)O)c3=CC3=NC(=C4)C(C)=C3CCC(=O)NC(CC(=O)O)C(=O)O)=CC1=N2 (stereo not shown) [(66) C10-Co-DP-diAsp, 2,4-bis(1-decyloxyethyl)-Co-deuteroporphynyl diaspartic acid] | G1 |  |
| CC(C)=CCCC(C)CCOC(C)C1=C(C)C2=Cc3c(C(C)OCCC(C)CCC=C(C)C)c(C)c4[n]3[Mn][n]3c(c(C)c(CCC(=O)NC(CC(=O)O)C(=O)O)c3=CC3=NC(=C4)C(C)=C3CCC(=O)NC(CC(=O)O)C(=O)O)=CC1=N2 (stereo not shown) [(43) C10(Citro)-Mn-DP-diAsp, 2,4-bis(1-citronellyloxyethyl)-Mn-deuteroporphynyl diaspartic acid] | G3 |  |
| CCCCCCCCCCCCOC(C)C1=C(C)C2=Cc3c(C(C)OCCCCCCCCCCCC)c(C)c4[n]3[Zn][n]3c(c(C)c(CCC(=O)NC(CC(=O)O)C(=O)O)c3=CC3=NC(=C4)C(C)=C3CCC(=O)NC(CC(=O)O)C(=O)O)=CC1=N2 (stereo not shown) [(73) C12-Zn-DP-diAsp, 2,4-bis(1-dodecyloxyethyl)-Zn-deuteroporphynyl diaspartic acid] | G2 |  |
| CCCCCCCCCCOC(C)C1=C(C)C2=Cc3c(C(C)OCCCCCCCCCC)c(C)c4[n]3[Mn][n]3c(c(C)c(CCC(=O)NC(CC(C)C)C(=O)NC(CC(=O)O)C(=O)O)c3=CC3=NC(=C4)C(C)=C3CCC(=O)NC(CC(C)C)C(=O)NC(CC(=O)O)C(=O)O)=CC1=N2 (stereo not shown) [(40) C10-Mn-DP-diLeu-diAsp, 2,4-bis(1-decyloxyethyl)-Mn-deuteroporphynyl dileucyldiaspartic acid] | G2 |  |
| CC1=C(CCC(=O)NC(CC(=O)O)C(=O)O)C2=NC1=Cc1c(C)c(C(C)OCc3cccnc3)c3[n]1[Mn][n]1c(c(C)c(CCC(=O)NC(CC(=O)O)C(=O)O)c1=C2)=CC1=NC(=C3)C(C)=C1C(C)OCc1cccnc1 (stereo not shown) [(57) Nct-Mn-DP-diAsp, 2,4-bis(1-nicotynyloxyethyl)-Mn-deuteroporphynyl diaspartic acid] | G2 |  |
| CCCCCCCCCCCCOC(C)C1=C(C)C2=Cc3c(C(C)OCCCCCCCCCCCC)c(C)c4[n]3[Cu][n]3c(c(C)c(CCC(=O)NC(CC(=O)O)C(=O)O)c3=CC3=NC(=C4)C(C)=C3CCC(=O)NC(CC(=O)O)C(=O)O)=CC1=N2 (stereo not shown) [(70) C12-Cu-DP-diAsp, 2,4-bis(1-dodecyloxyethyl)-Cu-deuteroporphynyl diaspartic acid] | G1 |  |
| CC1=C(CCC(=O)NC(CC(=O)O)C(=O)O)c2cc3[nH]c(cc4nc(cc5[nH]c(cc1n2)c(C(C)OCC1CCCO1)c5C)C(C(C)OCC1CCCO1)=C4C)c(C)c3CCC(=O)NC(CC(=O)O)C(=O)O.[Mn] (stereo not shown) [(55) H4Fran-Mn-DP-diAsp, 2,4-bis(1-tetrahydrofurfuryloxyethyl)-Mn-deuteroporphynyl diaspartic acid] | G2 |  |
| C=CC1=C(C)C2=Cc3c(C(C)OCCC(C)CCCC(C)C)c(C)c4[n]3[Mn][n]3c(c(C)c(CCC(=O)NC(CC(=O)O)C(=O)O)c3=CC3=NC(=C4)C(C)=C3CCC(=O)NC(CC(=O)O)C(=O)O)=CC1=N2 (stereo not shown) [(45) C10(H2Citro,mono)-Mn-DP-diAsp, 2-(1-dihydrocitronellyloxyethyl)-4-ethenyl-Mn-deuteroporphynyl diaspartic acid] | G2 |  |
| CCCCCCCCCCCCOC(C)C1=C(C)C2=Cc3c(C(C)OCCCCCCCCCCCC)c(C)c4[n]3[Fe][n]3c(c(C)c(CCC(=O)NC(CC(=O)O)C(=O)O)c3=CC3=NC(=C4)C(C)=C3CCC(=O)NC(CC(=O)O)C(=O)O)=CC1=N2 (stereo not shown) [(64) C12-Fe-DP-diAsp, 2,4-bis(1-dodecyloxyethyl)-Fe-deuteroporphynyl diaspartic acid] | G3 |  |
| CCCCCCCCOC(C)C1=C(C)C2=Cc3c(C(C)OCCCCCCCC)c(C)c4[n]3[Mn][n]3c(c(C)c(CCC(=O)NC(CC(=O)O)C(=O)O)c3=CC3=NC(=C4)C(C)=C3CCC(=O)NC(CC(=O)O)C(=O)O)=CC1=N2 (stereo not shown) [(36) C8-Mn-DP-diAsp, 2,4-bis(1-octyloxyethyl)-Mn-deuteroporphynyl diaspartic acid] | G3 |  |
| CCCCCCCCCCOC(C)C1=C(C)C2=Cc3c(C(C)OCCCCCCCCCC)c(C)c4[n]3[Mn][n]3c(c(C)c(CCC(=O)NC(Cc5ccccc5)C(=O)NC(CC(=O)O)C(=O)O)c3=CC3=NC(=C4)C(C)=C3CCC(=O)NC(Cc3ccccc3)C(=O)NC(CC(=O)O)C(=O)O)=CC1=N2 (stereo not shown) [(41) C10-Mn-DP-diPhe-diAsp, 2,4-bis(1-decyloxyethyl)-Mn-deuteroporphynyl diphenylalanyldiaspartic acid] | G2 |  |
| CC1=C(CCC(=O)NC(CC(=O)O)C(=O)O)C2=NC1=Cc1c(C)c(C(C)OCCO)c3[n]1[Ga][n]1c(c(C)c(CCC(=O)NC(CC(=O)O)C(=O)O)c1=C2)=CC1=NC(=C3)C(C)=C1C(C)OCCO (stereo not shown) [(3) EG-Ga-DP-diAsp, 2,4-bis[1-(2-hydroxyethyloxy)ethyl]-Ga-deuteroporphynyl diaspartic acid] |  | tumor/tissue cancer/ kidney [1]: 3.45; tumor/tissue cancer/ liver [1]: 3.00; tumor/tissue cancer/ lung [1]: 2.87 |
| C=CC1=C(C)C2=Cc3c(C(C)OCCCCCCCCCCCC)c(C)c4[n]3[Mn][n]3c(c(C)c(CCC(=O)NC(CC(=O)O)C(=O)O)c3=CC3=NC(=C4)C(C)=C3CCC(=O)NC(CC(=O)O)C(=O)O)=CC1=N2 (stereo not shown) [(49) C12(mono)-Mn-DP-diAsp, 2-(1-dodecyloxyethyl)-4-ethenyl-Mn-deuteroporphynyl diaspartic acid] | G2 |  |
